The record followed here is patent US7053194B2, “Compositions and methods for p53-mediated repression of gene expression” (Fox Chase Cancer Center, priority 1999, dated 2006).

Experiment [1] relates to MCF7 breast carcinoma cells. In words: Western analysis of p53 and survivin protein after doxorubicin. Type of experiment: cell-based, human. To be noted: twenty-four hour treatment. The method, then:
(§1) MCF-7 cells were maintained in RPMI-1640 supplemented with 10% fetal bovine serum and 100 units/ml of penicillin and streptomycin. The human melanoma cell line CaCl, and the derivative clone expressing the HPV E6 gene, were cultured as described (Ahn et al., Oncogene). The human osteosarcoma cell lines Saos-2 and U2-OS (kindly provided by Peter Adams, Fox Chase Cancer Center), the murine p21 knock-out fibroblasts (kindly provided by James Sherley, MIT) and the human lung adenocarcinoma cell line H1299 were cultured in DMEM supplemented with 10% fetal bovine serum and 100 units/ml of penicillin and streptomycin. […] For treatment with ultra-violet light, cells were irradiated with 0–10 J/m2 (as noted) of UV-C with a Spectroline X series ultraviolet lamp, and output was monitored with a traceable UV light meter (Fisher Scientific). For drug treatment, cells were treated with 0.5ug/ml adriamycin (doxorubicin, Sigma), or dilution vehicle alone, for twenty-four hours. p53 induction was monitored by western analysis of 100 ug protein as described (Murphy et al., Genes & Devel. 10:2971–2980, 1996), using 0.1ug/ml DO-1 (Ab-6, Calbiochem) or 421 (Ab-1, Calbiochem.
(§2) Western analysis was performed essentially as described (Murphy et al., 1999). […] Protein concentrations were determined using the Bio-Rad Dc Protein Assay (Bio-Rad). […]

Experiment [2] has as its system human breast carcinoma cells (MCF7). Nature of the experiment: Northern analysis of survivin mRNA after doxorubicin. It is filed as cell-based. The conditions noted are these: MCF7, 0.5 ug/mL doxorubicin, as early as twelve hours. As to the method:
(§3) MCF-7 cells were maintained in RPMI-1640 supplemented with 10% fetal bovine serum and 100 units/ml of penicillin and streptomycin. The human melanoma cell line CaCl, and the derivative clone expressing the HPV E6 gene, were cultured as described (Ahn et al., Oncogene). The human osteosarcoma cell lines Saos-2 and U2-OS (kindly provided by Peter Adams, Fox Chase Cancer Center), the murine p21 knock-out fibroblasts (kindly provided by James Sherley, MIT) and the human lung adenocarcinoma cell line H1299 were cultured in DMEM supplemented with 10% fetal bovine serum and 100 units/ml of penicillin and streptomycin. Murine Va15 cells, containing the temperature-sensitive Valine 135 allele of p53, were maintained as described (Wu, et al., Genes & Devel. 7:1126–1132, 1993). All cells were grown at 37° C. […] For treatment with ultra-violet light, cells were irradiated with 0–10 J/m2 (as noted) of UV-C with a Spectroline X series ultraviolet lamp, and output was monitored with a traceable UV light meter (Fisher Scientific). […]
(§4) The full-length coding region for survivin was generated by reverse transcription-polymerase chain reaction (RT-PCR) using 5 ug of total RNA from the H1299 human lung adenocarcinoma cell line, using the Access RT-PCR kit (Promega) and the following oligonucleotides: forward 5′ […] […] Autoradiographs were quantitated using NIH image software. […]

In another experiment the test system is melanoma cells (CaCl). Described as above. Type of experiment: cell-based, human. The conditions noted are these: 0.5 ug/mL doxorubicin, as early as twelve hours. As to the method: as §3, §4
Another experiment has as its system CaCl and CaCl/E6. In words: Western analysis of survivin after doxorubicin in melanoma line with or without HPV E6. It is filed as cell-based, human. To be noted: CaCl versus CaCl/E6, doxorubicin treatment. The method, then: as §1, §2

Turning to `COc1cccc2c1C(=O)c1c(O)c3c(c(O)c1C2=O)C[C@@](O)(C(=O)CO)C[C@@H]3O[C@H]1C[C@H](N)[C@H](O)[C@H](C)O1` [adriamycin, doxorubicin], in experiment [1], the “decrease of survivin protein levels” value was 3–4 fold and the “induction of p53 expression” value came out at 4 fold. In experiment [2], the “mRNA levels for survivin” value was “marked decreases in mRNA levels for survivin”. Further, the “mRNA levels for survivin” value in the experiment on melanoma cells (CaCl) is listed as “marked decreases in mRNA levels for survivin”. Moreover, the survivin protein levels result in the experiment on CaCl and CaCl/E6 is given as “down-regulation of survivin protein levels only in parental CaCl cells”.
